Source: US8293786B2 (Alltranz Inc., priority 2007, dated 2012)

What was measured:
[1] = Plasma stability of cannabidiol prodrugs (bioconversion to parent drug); assay type: in vitro ADME; conditions: for % Prodrug at time (h): mono-prodrug in plasma; for % mono-prodrug at time (h) / % Di-prodrug at time (h): di-prodrug in plasma; for % mono-prodrug at time (h): mono-prodrug formed
Protocol: An approximated 1 mg/mL stock solution of each prodrug was prepared in 100 μL of ethanol and 900 μL of acetonitrile. Ten (10) μL of stock was spiked into 1 mL of plasma and vortexed. The samples were kept sealed in an amber vial and samples were obtained to analyze for bioconversion to parent drug.

human abdominal skin = experiment: In vitro human skin permeation and skin disposition, flow-through diffusion cells (Examples 2, 2A, 2B); assay type: in vitro ADME; conditions: for Flux enhancement: total cannabidiol versus cannabidiol; for 30 h skin conc: Table 17
Protocol: Flow through diffusion cells were used for the permeation studies. HEPES-buffered Hanks' balanced salts containing 40% PEG 400 with gentamicin or 40% aqueous PEG 400 with gentamicin were used for the receiver compartment. Donor solution was comprised of 90:8:2 PG:H2O:IPM solution or gel formulation. […] Drug accumulation in the skin after a 24, 30 or 42 h diffusion experiment was determined as μmol/g wet tissue weight.
The skin samples used in the following experiments were obtained from abdominal reduction surgery and dermatomed to a thickness of approximately 200 μm. The skin samples used herein were frozen at −20° C. for less than six months.
One (1) L of receiver fluid was prepared by measuring 1 L of nanopure water into a graduated cylinder. 90% of the water was added to an Erlenmeyer flask. Hanks' salts (1 bottle) were added to the water along with 5.96 g of HEPES and 0.35 g of sodium bicarbonate. The pH of the solution was adjusted with 1 N sodium hydroxide solution to pH 7.4. The remaining water was added and the receiver fluid was filtered through a 0.2μ filter (Millipore, Billerica, Mass.). Fifty (50) mg of gentamicin was added to the filtered receiver fluid and 400 mL of the receiver fluid was removed and replaced with 400 mL of PEG 400.
The receiver fluid was prepared by measuring 600 mL of nanopure H2O into a graduated cylinder. The H2O was filtered through a 0.2μ filter (Millipore, Billerica, Mass.). Fifty (50) mg of gentamicin was added to the filtered H2O and 400 mL of PEG 400 was added.
The prodrugs were made up in a solution of 45:4:1 PG:H2O:IPM. For this solution, the appropriate amount of drug was weighed into a glass silanized culture tube and IPM was added, the 50 μL of PG to coat the drug, then an additional 247 μL PG was added and the donor solution was vortexed again. Finally 26 μL of water was added. The gel formulation resulted from the mixing of absolute ethanol, nanopure water, IPM, Carbopol® 980, 0.1 N sodium hydroxide solution and the respective drug.
The gel formulation was comprised of absolute ethanol, nanopure water, IPM, Carbopol® 980, 0.1 sodium hydroxide solution and respective drug. The anhydrous gel was comprised of absolute ethanol, PEG monoethyl ether 550, Klucel® hydroxypropylcellulose, and respective drug.
Dermatomed skin harvested from abdominoplasty, stored at −20° C., was used for the experiments. A PermeGear flow-through (In-Line, Hellertown, Pa.) diffusion cell system was used for the skin permeation studies.
Diffusion cells were kept at 32° C. with a circulating water bath. Human epidermal skin was arranged in the diffusion cell with stratum corneum (upper layer of skin) facing the donor compartment. The permeation area of the skin was 0.95 cm^2. The data was collected from a human skin donor with three diffusion cells per treatment.
The receiver solution was HEPES-buffered Hanks' balanced salts with gentamicin containing 40% PEG 400 at a pH of 7.4 or 40% aqueous PEG 400 and flow rate was adjusted to 0.8 mL/h. Each cell was charged with 0.10 mL of the respective drug formulation (donor solution) or 50 μL of gel formulation which was rubbed into the skin for 15 sec with a Teflon coated rod. The formulation was applied to ensure complete coverage. […]. Diffusion cells were covered with a stopper or cap for the duration of the study.
Samples were collected into scintillation vials in 3 h increments for either 24, 30, or 42 h. All the samples were stored at 4° C. until extracted. An aliquot (0.5 mL) of the diffusion sample was placed into a silanized HPLC vial and 0.5 mL of acetonitrile was added to the sample, capped and vortexed.
At the end of the experiment, the skin tissue was removed from the diffusion cell, rinsed with nanopure water, and blotted dry with a paper towel. The skin was tape stripped twice using book tape (Scotch™, 3M, St. Paul, Minn.) to remove drug formulation adhering to the tissue surface.

[2] = Table 23, gel formulation, 40% aqueous PEG 400 receiver fluid, CBD from applied prodrug
[3] = Table 23, gel formulation, 40% aqueous PEG 400 receiver fluid, as applied compound (CBD or intact prodrug)
[4] = Table 23, gel formulation, 40% aqueous PEG 400 receiver fluid, prodrug applied, as total cannabidiol equivalents
[5] = Table 16, 90:8:2 PG:H2O:IPM donor solution, 60/40 Hanks'/PEG 400 receiver fluid, CBD from applied prodrug
[6] = Table 16, 90:8:2 PG:H2O:IPM donor solution, 60/40 Hanks'/PEG 400 receiver fluid, as applied compound (CBD or intact prodrug)
[7] = Table 16, 90:8:2 PG:H2O:IPM donor solution, 60/40 Hanks'/PEG 400 receiver fluid, mono-prodrug (ALL00131) from applied di-prodrug
[8] = Table 16, 90:8:2 PG:H2O:IPM donor solution, 60/40 Hanks'/PEG 400 receiver fluid, prodrug applied, as total cannabidiol equivalents
[9] = Table 16, 90:8:2 PG:H2O:IPM donor solution, 60/40 Hanks'/PEG 400 receiver fluid

Structure (SMILES) | % mono-prodrug at time (h) ([1]; Table 20, 1 h) [%] | % mono-prodrug at time (h) ([1]; Table 20, 24 h) [%] | % Di-prodrug at time (h) ([1]; Table 20, 0 h) [%] | % Di-prodrug at time (h) ([1]; Table 20, 1 h) [%] | % Di-prodrug at time (h) ([1]; Table 20, 24 h) [%] | 42 h cumulative amt (human abdominal skin; [5]) [nmol] | Flux (human abdominal skin; [5]) [nmol/cm^2/h] | Lag time (human abdominal skin; [5]) [h] | 42 h cumulative amt (human abdominal skin; [6]) [nmol] | 42 h skin conc (human abdominal skin; [6]) [µmol/g] | Flux (human abdominal skin; [6]) [nmol/cm^2/h] | Lag time (human abdominal skin; [6]) [h] | 42 h cumulative amt (human abdominal skin; [8]) [nmol] | 42 h skin conc (human abdominal skin; [8]) [µmol/g] | Flux (human abdominal skin; [8]) [nmol/cm^2/h] | Lag time (human abdominal skin; [8]) [h] | Flux enhancement (human abdominal skin; [9]) | detected in the skin as (human abdominal skin; in donor solution) | permeated through the skin as (human abdominal skin; in donor solution) | total skin concentrations compared to cannabidiol (human abdominal skin; in donor solution) | further results
C=C(C)[C@@H]1CCC(C)=C[C@H]1c1c(O)cc(CCCCC)cc1OC(=O)CO [ALL00149, CBD Glycolate] |  |  |  |  |  |  |  |  |  |  |  |  |  |  |  |  |  |  |  |  | % Prodrug at time (h) ([1]; Table 24, 0 h): 100%; % Prodrug at time (h) ([1]; Table 24, 0.5 h): 31%; % Prodrug at time (h) ([1]; Table 24, 1 h): 12%; % Prodrug at time (h) ([1]; Table 24, 2 h): 0%; 24 h cumulative amt (human abdominal skin; [2]): 1.2 nmol; 24 h skin conc (human abdominal skin; [2]): 0.9 ± 0.0 µmol/g; 24 h cumulative amt (human abdominal skin; [3]): 5.8 nmol; 24 h skin conc (human abdominal skin; [3]): 46.0 ± 11.5 µmol/g; Flux (human abdominal skin; [3]): 0.29 nmol/cm^2/h; Lag time (human abdominal skin; [3]): 6.4 h; 24 h cumulative amt (human abdominal skin; [4]): 6.9 nmol; 24 h skin conc (human abdominal skin; [4]): 46.3 ± 11.8 µmol/g; Flux (human abdominal skin; [4]): 0.40 nmol/cm^2/h; Lag time (human abdominal skin; [4]): 6.2 h; Flux enhancement (human abdominal skin; Table 23, gel formulation, 40% aqueous PEG 400 receiver fluid): 1.4; detected in the skin as (human abdominal skin; in gel formulation): primarily ALL00149 with a trace amount of cannabidiol; lag time compared to cannabidiol (human abdominal skin; in gel formulation): lower; permeated through the skin as (human abdominal skin; in gel formulation): primarily ALL00149 with a trace amount of cannabidiol; total skin concentrations compared to cannabidiol (human abdominal skin; in gel formulation): higher; increase of the flux compared to cannabidiol (human abdominal skin; in gel formulation, unit not given): 1.4
C=C(C)[C@@H]1CCC(C)=C[C@H]1c1c(OC(=O)COCCOCCOCCOC)cc(CCCCC)cc1OC(=O)COCCOCCOCCOC [ALL00132, CBD di(3,6,9,12-tetraoxatridecanoate)] | 52 | 2 | 100 | 28 | 0 | 10.0 ± 0.4 | 0.4 ± 0.1 | 11.8 ± 4.2 | 26.4 ± 17.0 | 2.9 ± 1.3 | 1.4 ± 0.4 | 19.2 ± 4.9 | 59.5 ± 23.8 | 3.5 ± 1.7 | 2.6 ± 0.5 | 14.9 ± 3.8 | 0.40 | prodrug and small amounts as mono-substituted prodrug, ALL00131 | intact prodrug, mono-substituted prodrug (ALL00131), and cannabidiol | not higher | % mono-prodrug at time (h) ([1]; Table 20, 2 h): 44%; % mono-prodrug at time (h) ([1]; Table 20, 4 h): 24%; % mono-prodrug at time (h) ([1]; Table 20, 6 h): 15%; % Di-prodrug at time (h) ([1]; Table 20, 2 h): 15%; % Di-prodrug at time (h) ([1]; Table 20, 4 h): 0%; % Di-prodrug at time (h) ([1]; Table 20, 6 h): 0%; 42 h cumulative amt (human abdominal skin; [7]): 23.0 ± 7.1 nmol; 42 h skin conc (human abdominal skin; [7]): 0.6 ± 0.1 µmol/g; Flux (human abdominal skin; [7]): 0.8 ± 0.2 nmol/cm^2/h; Lag time (human abdominal skin; [7]): 9.1 ± 3.3 h; flux compared to cannabidiol (human abdominal skin; in donor solution): did not increase the flux; lag time compared to cannabidiol (human abdominal skin; in donor solution): wasn't decreased
C=C(C)[C@@H]1CCC(C)=C[C@H]1c1c(OC(C)=O)cc(CCCCC)cc1OC(C)=O [ALL00142, CBD Diacetate] | 0 | 0 | 100 | 98 | 10 |  |  |  |  |  |  |  |  |  |  |  |  | only as intact prodrug | did not permeate through the skin or was below detection in the receiver samples | not higher | % mono-prodrug at time (h) ([1]; Table 20, 3 h): 0%; % Di-prodrug at time (h) ([1]; Table 20, 3 h): 90%; 30 h skin conc (human abdominal skin; 90:8:2 PG:H2O:IPM donor solution, 40% aqueous PEG 400 receiver fluid, as applied compound (CBD or intact prodrug)): 5.5 ± 0.3 µmol/g; 30 h skin conc (human abdominal skin; 90:8:2 PG:H2O:IPM donor solution, 40% aqueous PEG 400 receiver fluid, prodrug applied, as total cannabidiol equivalents): 5.5 ± 0.3 µmol/g
C=C(C)C1CCC(C)=CC1c1c(O)cc(CCCCC)cc1OC(=O)COCCOCCOC (centres unmarked) [ALL00140, CBD 2-[2-(2-methoxyethoxy)ethoxy]acetate] |  |  |  |  |  | 24.1 ± 3.3 | 0.9 ± 0.1 | 9.0 ± 2.7 | 34.3 ± 15.5 | 12.7 ± 6.6 | 1.3 ± 0.5 | 12.6 ± 2.5 | 58.1 ± 15.5 | 13.2 ± 6.9 | 2.2 ± 0.5 | 11.2 ± 2.2 | 0.33 | mostly as prodrug in the skin with small amounts of cannabidiol | intact prodrug and cannabidiol | not higher | % Prodrug at time (h) ([1]; Table 20, 0 h): 100%; % Prodrug at time (h) ([1]; Table 20, 2 h): 0%; % Prodrug at time (h) ([1]; Table 20, 20 h): 0%; % Prodrug at time (h) ([1]; Table 20, 24 h): 0%; 42 h skin conc (human abdominal skin; [5]): 0.5 ± 0.3 µmol/g; flux compared to cannabidiol (human abdominal skin; in donor solution): did not increase the flux; lag time compared to cannabidiol (human abdominal skin; in donor solution): slightly decreased
